According to ChEMBL document CHEMBL3351580, “Pyrano-isochromanones as IL-6 inhibitors: synthesis, in vitro and in vivo antiarthritic activity” (J Med Chem, 2014):
Each block holds one compound with its values, some of them ahead of it. The source made the active and inactive calls. No cut-off for these calls is given here.

What was measured:
[1] = Inhibition of concanavalin A-induced cell proliferation of T cells (unknown origin) at 10 uM after 72 hrs by MTT assay; format: functional
[2] = Solubility in water; format: physicochemical
B-cell = assay: Inhibition of LPS-induced cell proliferation of B cells (unknown origin) at 10 uM after 72 hrs by MTT assay; format: functional
THP-1 [3] = assay: Inhibition of LPS-induced TNFalpha production in human THP1 cells after 24 hrs; format: functional, cell-based; conditions: THP-1, 24 h
THP-1 [4] = assay: Inhibition of LPS-induced IL6 production in human THP1 cells after 24 hrs; format: functional, cell-based; conditions: THP-1, 24 h
Mus musculus [5] = assay: Antiarthritic activity in DBA/1J mouse collagen-induced arthritis model assessed as reduction in TNFalpha level at 3 to 30 mg/kg, po administered once daily for 49 days starting from onset of disease and measured after 3 to 49 days of disease onset by ELISA method; format: functional, organism-based
Mus musculus [6] = assay: Antiarthritic activity in BALB/c mouse assessed as reduction in SRBC-induced blood IL4 level administered orally once daily for 14 days measured 4 hrs post last dose by ELISA method; format: functional, organism-based
Mus musculus [7] = assay: Antiarthritic activity in DBA/1J mouse collagen-induced arthritis model assessed as reduction in anticollagen antibody IgG2a level at 3 to 30 mg/kg, po administered once daily for 49 days starting from onset of disease and measured after 49 days of disease onset by ELISA method; format: functional, organism-based
Mus musculus [8] = assay: Antiinflammatory activity in BALB/c mouse assessed as serum IL6 level at 100 mg/kg, po qd for 5 days followed by LPS challenge 1 hr after last compound dose on fifth day and measured 4 hrs post LPS challenge by ELISA method (reference value: 410 +/- 95 pg/mL); format: functional
THP-1 [9] = assay: Inhibition of NFkappaB p65/rel expression in human THP1 cells at 20 to 100 uM by Western blotting method; format: functional, cell-based
Mus musculus [10] = assay: Antiarthritic activity in BALB/c mouse assessed as reduction in SRBC-induced blood IL2 level administered orally once daily for 14 days measured 4 hrs post last dose by ELISA method; format: functional, organism-based
Mus musculus [11] = assay: Antiinflammatory activity in BALB/c mouse assessed as serum TNFalpha level at 10 mg/kg, po qd for 5 days followed by LPS challenge 1 hr after last compound dose on fifth day and measured 4 hrs post LPS challenge by ELISA method (reference value: 717 +/- 218 pg/mL); format: functional
Mus musculus [12] = assay: Antiarthritic activity in DBA/1J mouse collagen-induced arthritis model assessed as reduction in anticollagen antibody IgG1 level at 3 to 30 mg/kg, po administered once daily for 49 days starting from onset of disease and measured after 14 days of disease onset by ELISA method; format: functional, organism-based
Mus musculus [13] = assay: Antiarthritic activity in DBA/1J mouse collagen-induced arthritis model assessed as reduction in anticollagen antibody IgG1 level at 3 to 30 mg/kg, po administered once daily for 49 days starting from onset of disease and measured after 49 days of disease onset by ELISA method; format: functional, organism-based
THP-1 [14] = assay: Inhibition of NFkappaB expression in human THP1 cells up to 100 uM by Western blotting method; format: functional, cell-based
Mus musculus [15] = assay: Immunosuppressive activity in BALB/c mouse assessed as reduction in SRBC-induced humoral immunity by measuring IgG level at 3 to 30 mg/kg, po administered once daily for 14 days measured 4 hrs post last dose; format: functional, organism-based
THP-1 [16] = assay: Inhibition of LPS-induced IL-1beta production in human THP1 cells at 10 uM after 24 hrs; format: functional; conditions: THP-1, 24 h
Mus musculus [17] = assay: Immunosuppressive activity in BALB/c mouse assessed as reduction in SRBC-induced humoral immunity by measuring IgM level at 3 to 30 mg/kg, po administered once daily for 14 days measured 4 hrs post last dose; format: functional, organism-based
Mus musculus [18] = assay: Antiinflammatory activity in BALB/c mouse assessed as serum nitric oxide level at 100 mg/kg, po qd for 5 days followed by LPS challenge 1 hr after last compound dose on fifth day and measured 4 hrs post LPS challenge by Griess assay (reference value: 6.95 +/- 1.81 uM); format: functional
[19] = biological target: Inhibitor of NF-kappa-B kinase (IKK) (Homo sapiens) (UniProt O14920+O15111+Q9Y6K9); assay: Inhibition of IKKbeta expression in human THP1 cells at 20 to 100 uM by Western blotting method; format: functional, cell-based; conditions: THP-1
Mus musculus [20] = assay: Antiarthritic activity in DBA/1J mouse collagen-induced arthritis model assessed as reduction in IL-1beta level at 3 to 30 mg/kg, po administered once daily for 49 days starting from onset of disease and measured after 3 to 49 days of disease onset by ELISA method; format: functional, organism-based
Mus musculus [21] = assay: Antiarthritic activity in DBA/1J mouse collagen-induced arthritis model assessed as reduction in anticollagen antibody IgG2a level at 3 to 30 mg/kg, po administered once daily for 49 days starting from onset of disease and measured after 14 days of disease onset by ELISA method; format: functional, organism-based
Mus musculus [22] = assay: Antiinflammatory activity in BALB/c mouse assessed as serum TNFalpha level at 100 mg/kg, po qd for 5 days followed by LPS challenge 1 hr after last compound dose on fifth day and measured 4 hrs post LPS challenge by ELISA method (reference value: 717 +/- 218 pg/mL); format: functional
THP-1 [23] = assay: Cytotoxicity against human THP1 cells after 48 hrs by MTT assay; format: cell-based; conditions: THP-1, 48 h
THP-1 [24] = assay: Inhibition of LPS-induced nitric oxide production in human THP1 cells at 10 uM after 24 hrs by Griess assay; format: functional; conditions: THP-1, 24 h
Mus musculus [25] = assay: Immunosuppressive activity in BALB/c mouse assessed as reduction in SRBC-induced DTH response at 3 to 30 mg/kg, po administered once daily for 14 days measured 4 hrs post last dose; format: functional, organism-based
Mus musculus [26] = assay: Antiarthritic activity in DBA/1J mouse collagen-induced arthritis model assessed as reduction in paw swelling at 30 mg/kg, po administered once daily for 49 days starting from onset of disease; format: functional; conditions: 1176 h
Mus musculus [27] = assay: Antiarthritic activity in BALB/c mouse assessed as reduction in SRBC-induced blood IFNgamma level administered orally once daily for 14 days measured 4 hrs post last dose by ELISA method; format: functional, organism-based
Mus musculus [28] = assay: Antiinflammatory activity in BALB/c mouse assessed as serum nitric oxide level at 10 mg/kg, po qd for 5 days followed by LPS challenge 1 hr after last compound dose on fifth day and measured 4 hrs post LPS challenge by Griess assay (reference value: 6.95 +/- 1.81 uM); format: functional
[29] = Therapeutic index, ratio of cytotoxic IC50 for human THP1 cells by MTT assay to IC50 for inhibition of LPS-induced IL6 production in human THP1 cells; format: cell-based, THP-1; conditions: read-out: Ratio IC50
THP-1 [30] = assay: Cytotoxicity against human THP1 cells after 24 hrs by MTT assay; format: cell-based; conditions: THP-1, 24 h
Mus musculus [31] = assay: Antiinflammatory activity in BALB/c mouse assessed as serum IL6 level at 10 mg/kg, po qd for 5 days followed by LPS challenge 1 hr after last compound dose on fifth day and measured 4 hrs post LPS challenge by ELISA method (reference value: 410 +/- 95 pg/mL); format: functional
Mus musculus [32] = assay: Antiarthritic activity in DBA/1J mouse collagen-induced arthritis model assessed as reduction in IL6 level at 3 to 30 mg/kg, po administered once daily for 49 days starting from onset of disease and measured after 3 to 49 days of disease onset by ELISA method; format: functional, organism-based

Compound: CCCN(CCC)Cc1c(O)c(OC)c(O)c2c1C(=O)O[C@@H]1[C@@H](O)[C@H](O)[C@@H](CO)O[C@@H]21
inhibition at 10 µM [1]: 10.3% | solubility [2]: > 1500 µg/mL | inhibition at 10 µM (B-cell): 2.8% | IC50 (THP-1 [3]): > 30 µM | IC50 (THP-1 [4]): 361 nM

Compound: COc1c(O)c(CN2CCC(Cc3ccccc3)CC2)c2c(c1O)[C@@H]1O[C@H](CO)[C@@H](O)[C@H](O)[C@H]1OC2=O
inhibition at 10 µM [1]: 16% | solubility [2]: > 1500 µg/mL | inhibition at 10 µM (B-cell): 18.2% | IC50 (THP-1 [3]): > 30 µM | IC50 (THP-1 [4]): 371 nM

Compound: COc1c(O)cc2c(c1O)[C@@H]1O[C@H](CO)[C@@H](O)[C@H](O)[C@H]1OC2=O [BERGENIN]
inhibition (Mus musculus [5]): Active | inhibition (Mus musculus [6]): Dose-dependent effect | inhibition (Mus musculus [7]): Active | Activity (Mus musculus [8]): 55 pg/mL | inhibition (THP-1 [9]): Active | inhibition (Mus musculus [10]): Dose-dependent effect | Activity (Mus musculus [11]): 667 pg/mL | inhibition at 10 µM [1]: 54.8% | solubility [2]: > 1500 µg/mL | inhibition at 10 µM (B-cell): 51.2% | inhibition (Mus musculus [12]): Active | inhibition (Mus musculus [13]): Active | inhibition (THP-1 [14]): inactive | inhibition (Mus musculus [15]): Active | inhibition at 10 µM (THP-1 [16]): 24% | inhibition (Mus musculus [17]): Active | Activity (Mus musculus [18]): 3.29 µM | inhibition [19]: Active | inhibition (Mus musculus [20]): Active | inhibition (Mus musculus [21]): Active | Activity (Mus musculus [22]): 509 pg/mL | IC50 (THP-1 [23]): 84 µM | inhibition at 10 µM (THP-1 [24]): 39% | inhibition (Mus musculus [25]): Active | inhibition in vivo at 30 mg/kg (Mus musculus [26]): 32% | inhibition (Mus musculus [27]): Dose-dependent effect | Activity (Mus musculus [28]): 2.62 µM | selectivity ratio [29]: > 400 | IC50 (THP-1 [30]): 130 µM | Activity (Mus musculus [31]): 282 pg/mL | IC50 (THP-1 [3]): 12.5 µM | inhibition (Mus musculus [32]): Active | IC50 (THP-1 [4]): 208 nM

Compound: CCN1CCN(Cc2c(O)c(OC)c(O)c3c2C(=O)O[C@@H]2[C@@H](O)[C@H](O)[C@@H](CO)O[C@@H]32)CC1
inhibition at 10 µM [1]: 34.2% | solubility [2]: > 1500 µg/mL | inhibition at 10 µM (B-cell): 44.2% | IC50 (THP-1 [3]): > 30 µM | IC50 (THP-1 [4]): 195 nM

Compound: COc1c(O)c(CN(C)CC(=O)O)c2c(c1O)[C@@H]1O[C@H](CO)[C@@H](O)[C@H](O)[C@H]1OC2=O
inhibition at 10 µM [1]: 4% | solubility [2]: > 1500 µg/mL | inhibition at 10 µM (B-cell): 17% | IC50 (THP-1 [3]): > 30 µM | IC50 (THP-1 [4]): 1630 nM

Now from value to compound, other results behind:

solubility [2]: > 1500 µg/mL | IC50 (THP-1 [3]): 16 µM | IC50 (THP-1 [4]): 1860 nM
Compound: COc1c(O)c(CN2CCOCC2)c2c(c1O)[C@@H]1O[C@H](CO)[C@@H](O)[C@H](O)[C@H]1OC2=O
inhibition at 10 µM [1]: 37.5% | inhibition at 10 µM (B-cell): 31.6%

solubility [2]: > 1500 µg/mL | IC50 (THP-1 [3]): > 30 µM | IC50 (THP-1 [4]): 755 nM
Compound: COc1c(O)c(CN2CCCC2)c2c(c1O)[C@@H]1O[C@H](CO)[C@@H](O)[C@H](O)[C@H]1OC2=O
inhibition at 10 µM [1]: 14.8% | inhibition at 10 µM (B-cell): 2.5%
